Test results: patent US20250092065A1, “2-(INDAZOL-5-YL)-6-(PIPERIDIN-4-YL)-1,7-NAPHTHYRIDINE DERIVATIVES AND RELATED COMPOUNDS AS MODULATORS FOR SPLICING NUCLEIC ACIDS AND FOR THE TREATMENT OF PROLIFERATIVE DISEASES” (REMIX THERAPEUTICS INC., priority 2022, published 2025)
Read-outs that look alike come from different tables or passages of the source.

Tested on: MYB mRNA
Test: RT-qPCR splicing assay, MYB mRNA canonical (CJ) and alternative (AJ) junction
Format: cell-based, human
Conditions: Homo sapiens; for AC50: MYB alternative junction mRNA, read-out: MYB AJ (increase in AJ mRNA, AC50)
Outline: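 Canonical and alternative-exon junction isoforms were quantified by RT-qPCR in cell lysates, with ΔCt against a housekeeper (GAPDH/GUSB/PPIA), then ΔΔCt vs DMSO, converted to 2^(−ΔΔCt) and percent response. K562 or A673 cells were exposed for 24 h to 11 concentrations (3-fold, top final 10 uM).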

[1] = MYB canonical junction mRNA, RT-qPCR, read-out: MYB CJ (decrease in CJ mRNA levels, IC50)
[2] = canonical junction qPCR panel, Table 4, read-out: MYB IC50 (decrease in CJ mRNA levels)

Row | Compound | AC50 (RT-qPCR) [nM] | IC50 [1] [nM] | IC50 [2] [nM]
1 | Cc1c(O)c(-c2nc(C(N)=O)c3cc(N4CCNCC4)ccc3n2)cc2cn(C)nc12 [Compound 523, 2-(6-hydroxy-2,7-dimethylindazol-5-yl)-6-(piperazin-1-yl) quinazoline-4-carboxamide] | < 100 | < 100 | < 100
2 | Cc1c(O)c(-c2nc(C(=O)O)c3cc(N4CCNCC4)ccc3n2)cc2cn(C)nc12 [Compound 524, 2-(6-hydroxy-2,7-dimethylindazol-5-yl)-6-(piperazin-1-yl) quinazoline-4-carboxylic acid] | > 10000 | > 10000 | > 10000
3 | Cc1c(O)c(-c2ncc3cc(N4C[C@@H](C)N[C@@H](C)C4)ccc3n2)cc2cn(C)nc12 [Compound 525, 5-{6-[(3R,5S)-3,5-dimethylpiperazin-1-yl]quinazolin-2-yl}-2,7-dimethylindazol-6-ol] | < 100 | < 100 | < 100
4 | Cc1c(O)c(-c2ncc3nc(N4C[C@@H](C)N[C@@H](C)C4)ccc3n2)cc2cn(C)nc12 [Compound 526, 5-{6-[(3R,5S)-3,5-dimethylpiperazin-1-yl]pyrido[3,2-d]pyrimidin-2-yl}-2,7-dimethylindazol-6-ol] | 100 to 1000 | < 100 | < 100
5 | CNC(=O)c1nc(-c2cc3cn(C)nc3c(F)c2O)nc2ccc(N3C[C@@H](C)N[C@@H](C)C3)cc12 [Compound 527, 6-[(3R,5S)-3,5-dimethylpiperazin-1-yl]-2-(7-fluoro-6-hydroxy-2-methylindazol-5-yl)-N-methylquinazoline-4-carboxamide] | < 100 | < 100 | < 100
6 | CNC(=O)c1nc(-c2cc3cn(C)nc3c(F)c2O)nc2ccc(N3CCC(N(C)C)CC3)cc12 [Compound 528, 6-[4-(dimethylamino)piperidin-1-yl]-2-(7-fluoro-6-hydroxy-2-methylindazol-5-yl)-N-methylquinazoline-4-carboxamide] | < 100 | < 100 | < 100
7 | CNC(=O)c1nc(-c2cc3cn(C)nc3c(F)c2O)nc2ccc(N3CCN[C@@H](C)C3)cc12 [Compound 529, 2-(7-fluoro-6-hydroxy-2-methylindazol-5-yl)-N-methyl-6-[(3S)-3-methylpiperazin-1-yl]quinazoline-4-carboxamide] | < 100 | < 100 | < 100
8 | CNC(=O)c1nc(-c2cc3cn(C)nc3cc2O)nc2ccc(N3CCN[C@@H](C)C3)cc12 [Compound 530, 2-(6-hydroxy-2-methylindazol-5-yl)-N-methyl-6-[(3S)-3-methylpiperazin-1-yl]quinazoline-4-carboxamide] | < 100 | < 100 | < 100
9 | CNC(=O)c1nc(-c2cc3cn(C)nc3cc2O)nc2ccc(N3C[C@@H](C)N[C@@H](C)C3)cc12 [Compound 531, 6-[(3R,5S)-3,5-dimethylpiperazin-1-yl]-2-(6-hydroxy-2-methylindazol-5-yl)-N-methylquinazoline-4-carboxamide] | < 100 | < 100 | < 100
10 | CNC(=O)c1nc(-c2cc3cn(C)nc3c(C)c2O)nc2ccc(N3CCNC4(CC4)C3)cc12 [Compound 532, 6-{4,7-diazaspiro[2.5]octan-7-yl}-2-(6-hydroxy-2,7-dimethylindazol-5-yl)-N-methylquinazoline-4-carboxamide] | < 100 | < 100 | < 100
11 | CNC(=O)c1nc(-c2cc3cn(C)nc3c(C)c2O)nc2ccc(N3CCNCC3)nc12 [Compound 533, 2-(6-hydroxy-2,7-dimethylindazol-5-yl)-N-methyl-6-(piperazin-1-yl)pyrido[3,2-d]pyrimidine-4-carboxamide] | 100 to 1000 | 100 to 1000 | 100 to 1000
